# Measurements from US9814241B2.
# Experiments:
# [1] = test system: Alternaria solani; experiment: Alternaria test (tomatoes)/preventive; format: in vivo; details: preventive, evaluated 3 days after inoculation
# [2] = test system: Venturia inaequalis; experiment: Venturia test (apples)/preventive; details: preventive, 100 ppm a.i., evaluated 10 days after inoculation
# Method: After the spray coating has dried on, the plants are inoculated with an aqueous conidia suspension of the causal agent of apple scab (Venturia inaequalis) and then remain for 1 day in an incubation cabinet at approximately 20° C. and a relative atmospheric humidity of 100%.
# The plants are then placed in a greenhouse at approximately 21° C. and a relative atmospheric humidity of approximately 90%.
# The test is evaluated 10 days after the inoculation.
# [3] = test system: Sphaerotheca fuliginea; experiment: Sphaerotheca test (cucumbers)/preventive; details: preventive, 100 ppm a.i., evaluated 7 days after inoculation
# Method: After the spray coating has dried on, the plants are inoculated with an aqueous spore suspension of Sphaerotheca fuliginea. The plants are then placed in a greenhouse at approximately 23° C. and a relative atmospheric humidity of approximately 70%.
# The test is evaluated 7 days after the inoculation.
compound,measurement,setting,value
"N#Cc1ccccc1NC(=O)c1snc(Cl)c1Cl [F187, isotianil]",Efficacy in % Found,"[1]; Table C1, tomatoes, 50 ppm a.i.",36%
same,Efficacy in % Found,[2],0%
same,Efficacy in % Found,[3],0%
"Cc1cc(C(F)(F)F)nn1CC(=O)N1CCC(c2nc(C3=NOC(c4c(F)cccc4F)C3)cs2)CC1 (stereo not drawn) [F315, 1-(4-{4-[5-(2,6-difluorophenyl)-4,5-dihydro-1,2-oxazol-3-yl]-1,3-thiazol-2-yl}piperidin-1-yl)-2-[5-methyl-3-(trifluoromethyl)-1H-pyrazol-1-yl]ethanone]",Efficacy in % Found,"[1]; Table C1, tomatoes, 100 ppm a.i.",0%
fosetyl-aluminium [F281],Efficacy in % Found,"[1]; Table C2, tomatoes, 100 ppm a.i.",0%
phosphorous acid and its salts [F298],Efficacy in % Found,"[1]; Table C2, tomatoes, 400 ppm a.i.",35%
